Literature values, collected in patent US20230172916A1, “COMPOSITION COMPRISING AT LEAST ONE PROTOBERBERINE ALKALOID AND METHOD FOR MANUFACTURING SAME” (ELEONOR, priority 2020, published 2023).
Like-named read-outs stand apart in the source and are kept apart here.

Columns and labels:
[1] = scientific studies report; species not stated
[2] = laboratory rats subjected to experiments

bioavailability [1]: less than 5%
bioavailability [2]: about 0.68%
Compound: COc1ccc2cc3[n+](cc2c1OC)CCc1cc2c(cc1-3)OCO2 [berberine, 2,3-methylenedioxy-9,10-dimethoxy-protoberberine]
